Patent publication USRE47689E1, “Compounds for treating spinal muscular atrophy” (PTC Therapeutics, Inc., priority 2011, dated 2019)

Tested on: full length and Δ7 SMN2 mRNAs
Assay: Endogenous SMN2 mRNA RT-qPCR splicing assay in cultured cells
Assay type: cell-based, human
Conditions: GM03813 Type 1 SMA patient fibroblasts, increasing concentrations, 24 hrs
Experimental: The reverse transcription-quantitative PCR-based (RT-qPCR) assay is used to quantify the levels of the full length and Δ7 SMN2 mRNAs in primary cells and cell lines containing the SMN2 gene treated with a test compound.
Protocol. GM03813 SMA patient cells (5,000 cells/well) are seeded in 200 μL, of cell culture medium (DMEM plus 10% FBS) in 96-well flat-bottom plates and the plate is immediately swirled to ensure proper dispersal of cells, forming an even monolayer of cells. Cells are allowed to attach for at least 4-6 hrs. Test compounds are serially diluted 3.16-fold in 100% DMSO to generate a 7-point concentration curve. A solution of test compound (1 μL, 200× in DMSO) is added to each test well and 1 μL, DMSO is added to each control well. The plate is incubated for 24 hrs in a cell culture incubator (37° C., 5% CO2, 100% relative humidity). The cells are then lysed in Cells-To-Ct lysis buffer and the lysate is stored at −80° C.
SMN2-specific spliced products and GAPDH mRNA are identified using the following primers and probes in Table 5. Primer SMN FL Forward B (SEQ ID NO. 7) hybridizes to a nucleotide sequence in exon 7 (nucleotide 32 to nucleotide 54) and exon 8 (nucleotide 1 to nucleotide 4), primer SMN Δ7 Forward B (SEQ ID NO. 8) hybridizes to a nucleotide sequence in exon 6 (nucleotide 87 to nucleotide 111) and exon 8 (nucleotide 1 to nucleotide 3), primer SMN Reverse B (SEQ ID NO. 9) hybridizes to a nucleotide sequence in exon 8 (nucleotide 39 to nucleotide 62), probe SMN Probe B (SEQ ID NO. 10) hybridizes to a nucleotide sequence in exon 8 (nucleotide 7 to nucleotide 36). These primers and probe hybridize to nucleotide sequences common to human SMN1 and SMN2 mRNAs. Since the SMA patient cells used in Example 3 contain only the SMN2 gene, RT-qPCR can quantify only SMN2 full-length and Δ7 mRNA.
The SMN forward and reverse primers are used at final concentrations of 0.4 μM. The SMN probe is used at a final concentration of 0.15 μM. GAPDH primers are used at final concentrations of 0.1 μM and the probe at 0.075 μM. TaqMan gene expression assays were conducted at 20× concentrations with the GAPDH primers and Vic labeled probe provided as a 20× mixture. The One-Step RT-PCR kit was used as the Real-Time PCR Mix. […]
The increase of SMN2 FL and decrease in SMN2 Δ7 mRNAs relative to those in cells treated with vehicle control are determined from real-time PCR data using a modified ΔΔCt method (as described in Livak and Schmittgen, Methods, 2001, 25:402-8). The amplification efficiency E is calculated from the slope of the amplification curve for SMN2 FL, SMN2 Δ7, and GAPDH individually. The abundances of SMN2 FL, SMN2 Δ7, and GAPDH are then calculated as (1+E)^−Ct, where Ct is the threshold value for each amplicon. […]

Compound	SMN2 FL mRNA relative to vehicle	SMN2 Δ7 mRNA relative to vehicle
CC(C)NCCc1ccc2cc(-c3nc4c(Cl)cccc4s3)c(=O)oc2c1 [Cpd 35, 3-(4-chloro-1,3-benzothiazol-2-yl)-7-[2-(propan-2-ylamino)ethyl]-2H-chromen-2-one]	progressively more SMN2 FL mRNA	less SMN2 Δ7 mRNA
CCN1CCN(c2ccc3cc(-c4cn5cc(C)nc(C)c5n4)c(=O)oc3c2)C[C@@H]1C [Cpd 626, 3-(6,8-dimethylimidazo[1,2-a]pyrazin-2-yl)-7-[(3S)-4-ethyl-3-methylpiperazin-1-yl]-2H-chromen-2-one]	progressively more SMN2 FL mRNA	less SMN2 Δ7 mRNA
